Like-named read-outs stand apart in the source and are kept apart here.
Legend:
Assay type in all cases: cell-based, human
[1] = tested on: caspase-9 in MCF-7 breast cancer cells; assay: FLICA caspase-9 activity, flow cytometry, MCF-7; conditions: MCF-7, 20 μM, 24 h
Experimental: (§1) Caspase-9 activity was measured using the FLICA Caspase 9 Assay Kit (ImmunoChemistry Technologies, Bloomington, MN, USA), according to the manufacturer’s instructions. Briefly, cultured MCF-7 and MDA-MB-231 breast cancer cells (1 × 10^6) were washed with cold PBS twice and re-suspended in buffer. We added 5 µl of diluted FLICA reagent and 2 µl of Hoechst 33342 to 93 µl of cell suspension and mixed by pipetting. The cells were incubated for 60 min at 37°C. After incubation, the cells were washed twice in 400 µl of apoptosis wash buffer and centrifuged at 300 × g. After the last wash, we re-suspended cells in 100 µl of apoptosis wash buffer supplemented with 10 µg/ml PI. Analysis was performed using the BD FACSCanto II flow cytometer, and the results were analysed with FACSDiva software (both from BD Biosciences Systems, San Jose, CA).

[2] = tested on: MDA-MB-231 breast cancer cells; assay: DNA fragmentation TUNEL assay, MDA-MB-231; conditions: MDA-MB-231, 20 μM, 24 h
Experimental: (§2) DNA fragmentation associated with apoptosis was examined by the terminal deoxynucleotidyltransferase (TdT)- mediated dUTP nick end labeling (TUNEL) method using a commercial assay kit (APO-Direct Kit; BD Pharmingen, San Diego, CA). After treatment, the cells were fixed with 1% paraformaldehyde in PBS (4°C, 30 min), washed in PBS, and permeabilised with ice-cold 70% ethanol. The APO-Direct Kit TUNEL assay was performed as described by the manufacturer. Briefly, the fixed cells were washed twice using the kit wash buffer, and after centrifugation the supernatant was discarded. The DNA labeling solution (containing TdT enzyme and FITC-dUTP) was added to the cell pellet, and the re-suspended mixture was incubated for 1 h at 37°C with occasional shaking. At the end of incubation time, rinse buffer was added, and after centrifugation the supernatant was discarded. We repeated the cell rinsing with rinse buffer, and then suspended the cell pellet in PI/RNase staining buffer. Cells were incubated at room temperature for 30 min and immediately analysed in a BD FACSCanto II flow cytometer. In total, 10,000 events were collected per test sample. The results were analysed with FACSDiva software (both from BD Biosciences Systems, San Jose, CA). The percentage of cells with distinctive apoptotic DNA strand breaks and distinguished by green fluorescent emission was calculated.

[3] = tested on: caspase-9 in MDA-MB-231 breast cancer cells; assay: FLICA caspase-9 activity, flow cytometry, MDA-MB-231; conditions: MDA-MB-231, 20 μM, 24 h
Experimental: as §1

[4] = tested on: caspase-8 in MCF-7 breast cancer cells; assay: FLICA caspase-8 activity, flow cytometry, MCF-7; conditions: MCF-7, 20 μM, 24 h
Experimental: as §1, with “Caspase-8 activity was” for “Caspase-9 activity was”, “FLICA Caspase 8 Assay Kit” for “FLICA Caspase 9 Assay Kit”, “we re-suspended the cells in” for “we re-suspended cells in”

[5] = tested on: MDA-MB-231 breast cancer cells; assay: MTT cell viability assay, MDA-MB-231; conditions: 5-50 μM, read-out: IC50 (cell viability, MTT)
Experimental: (§3) MCF-7, MDA-MB-231 (both human breast cancer cell lines), and fibroblast cells were obtained from American Type Culture Collection (ATCC, Manassas, VA, USA). DMEM and FBS used in a cell culture were from Gibco (USA). Glutamine, penicillin, and streptomycin were obtained from Quality Biologicals Inc. (USA). DMEM media was blended with 50 units/ml of penicillin, 50 μg/ml of streptomycin, 10% of FBS. All cell lines were cultured in 5% CO2 and fully humidified at 37 °C. Cells were cultured in Costar flasks and sub-confluent cells were detached with 0.05% trypsin and 0.02% ethylenediaminetetraacetic acid in calcium-free phosphate-buffered saline (PBS), counted in hemocytometers, and plated at 5 × 10^5 cells/well of six-well plates (Thermo Scientific, New York, NY, USA) in 2 ml of growth medium (DMEM without phenol red with 10% CPSR1). Cells reached about 80% of confluency at day 2, and in most cases such cells were used for the assays.
(§4) The viability of cultured cells was decided through assaying the reduction of MTT to formazan. In brief, MCF-7, MDA-MB-231, and fibroblast cells line were seeded at an initial density of 1 × 10^5 cells per well. Then, the cells were incubated at 37 °C for 24 h. Subsequently, cultured cells were treated with a medium containing concentrations (5, 10, 20, 30, 40, and 50 μM) of PtPz1–PtPz6 for 24 h and 48 h. After the incubation period, MTT was added into all wells in the final concentration of 0.5 mg/ml. After that, the cells were incubated at 37 °C for 4 h. Then, by removing the medium, 200 μl of DMSO was added to all wells. As a result, insoluble formazan was dissolved in DMSO (0.5%). At 570 nm (630 nm as a reference), the absorbance was measured in an Evolution 201 reader (Thermo Scientific, Waltham, MA).

[6] = tested on: caspase-3 in MDA-MB-231 breast cancer cells; assay: FLICA caspase-3 activity, flow cytometry, MDA-MB-231; conditions: MDA-MB-231, 20 μM, 24 h
Experimental: as §1, with “Caspase-3 activity was” for “Caspase-9 activity was”, “FLICA Caspase 3 Assay Kit” for “FLICA Caspase 9 Assay Kit”, “Briefly, cultured MDA-MB-231 breast” for “Briefly, cultured MCF-7 and MDA-MB-231 breast”, “we re-suspended the cells in” for “we re-suspended cells in”

[7] = tested on: caspase-8 in MDA-MB-231 breast cancer cells; assay: FLICA caspase-8 activity, flow cytometry, MDA-MB-231; conditions: MDA-MB-231, 20 μM, 24 h
Experimental: as §1, with “Caspase-8 activity was” for “Caspase-9 activity was”, “FLICA Caspase 8 Assay Kit” for “FLICA Caspase 9 Assay Kit”, “we re-suspended the cells in” for “we re-suspended cells in”

[8] = tested on: MCF-7 breast cancer cells; assay: DNA fragmentation TUNEL assay, MCF-7; conditions: MCF-7, 20 μM, 24 h; control 4.0%
Experimental: as §2

fibroblast cells = assay: MTT cell viability assay, fibroblasts; conditions: 5-50 μM, read-out: IC50 (cell viability, MTT)
Experimental: as §3, §4

[9] = tested on: MCF-7 breast cancer cells; assay: MTT cell viability assay, MCF-7; conditions: 5-50 μM, read-out: IC50 (cell viability, MTT)
Experimental: as §3, §4

## [Pt2(pyrazole)4(berenil)2]·4HCl·2H2O [PtPz4]
[1]
  percent of cells with active caspase-9: 29.7%
[2]
  percent of TUNEL positive cells: 22.9%
[3]
  percent of cells with active caspase-9: 29.6%
[4]
  percent of cells with active caspase-8: 30.9%
[5]; MDA-MB-231, 24 h incubation
  IC50: 33 ± 3 µM
[5]; MDA-MB-231, 48 h incubation
  IC50: 29 ± 2 µM
[6]
  percent of cells with active caspase-3: 14.8%
[7]
  percent of cells with active caspase-8: 29.5%
[8]
  percent of TUNEL positive cells: 29.4%
Fibroblast cells; 24 h incubation
  IC50: > 50 µM
Fibroblast cells; 48 h incubation
  IC50: 46 ± 2 µM
[9]; MCF-7, 24 h incubation
  IC50: 32 ± 2 µM
[9]; MCF-7, 48 h incubation
  IC50: 29 ± 2 µM

Source: PMC6009892, “A novel series of pyrazole-platinum(II) complexes as potential anti-cancer agents that induce cell cycle arrest and apoptosis in breast cancer cells” (Journal of Enzyme Inhibition and Medicinal Chemistry, 2018)
